US20150087037A1, “FERMENTATION PROCESS” (LanzaTech New Zealand Limited, priority 2013, published 2015)

Assays:
[1] = test system: C. autoethanogenum DSM23693; assay: Single reactor fermentation optimised for 2,3-BDO production, single 2-HIBA addition (Example 1); assay type: cell-based, Clostridium autoethanogenum
Description: (§1) Fermentations with C. autoethanogenum DSM23693 were carried out in 1.5 L bioreactors at 37° C. The media was prepared according to Table 1. To achieve anaerobicity the reactor vessel was sparged with nitrogen. Prior to inoculation, the gas was switched to either steel mill gas containing H2 (3%), N2 (30%), CO (47%) and CO2 (20%) or pure gases (50% CO, 18-40% CO2, with the balance N2). The gas flow was initially set at 67 ml/min/L, increasing to 200 ml/min during mid-exponential phase, while the agitation was increased from 200 rpm to 800. Na2S was dosed into the bioreactor at 0.25 ml/hr. Once the OD600 reached 1.5, the bioreactor was switched to a continuous mode at a dilution rate of 2.0-1.6 d-l and a bacterial dilution rate of 0.9-0.6 d-l. During continuous mode gas and agitation were adjusted to 900-950 rpm and 800-900 ml/min. Na2S was increased to 1.0 ml/hr.
(§2) Liquid culture samples were taken at differing intervals over the duration of the fermentation. These samples were used to establish the optical density at 600 nm (spectrophotometer) and the level of substrates and products (high performance liquid chromatography—HPLC). HPLC was routinely used to quantify the level of acetate, ethanol and 2,3-butanediol. The input and output gas compositions were analysed using a gas chromatographer (GC), allowing measurement of CO and H2 consumption and CO2 production by the culture.
The impacts of 2-HIBA were investigated on a single reactor system which had been optimised for 2,3-BDO production. This was done to ascertain the impact that this chemical would have on a high performance system and obtain information on suitable concentrations that would not interfere with overall fermentation stability.
The 2,3-BDO concentration increased from 6 g/L to 12 g/L dropping the ratio from 4:1 to as low as 1.4:1. […] The concentration of 2-HIBA was monitored in the reactor liquid outflow. […] The 2-HIBA washes out of the fermenter according to the bacterial dilution rate.

[2] = test system: C. autoethanogenum DSM23693; assay: Minimum 2-HIBA concentration needed to impact 2,3-butanediol production, continuous addition through the media (Example 4); assay type: cell-based, Clostridium autoethanogenum
Description: as §1, §2
In order to understand the minimum concentrations needed to generate the same effect the concentration used was dropped to 0.1 g/L (0.96 mM) in one example and 0.05 g/L (0.48 mM) in another example. Both fermentations had gas increased to minimize acetate and maximize ethanol production. Additional CO2 was blended into the gas stream to maximize 2,3-BDO production, the gas blend used was 50% CO, 35% CO2, 1.5% H2 with N2 balance. The dilution rate and bacterial dilution rate were adjusted to 1.8 day^−1 and 0.8 day^−1 respectively. Once stable data was collected continuous 2-HIBA addition through the media was started and resulting impact on metabolite concentrations observed. In both examples the ratio before the addition of 2-HIBA was about 2:1, and the resulting impact on the Ethanol:2,3-BDO ratio was proportional to the concentration of 2-HIBA used. In the first example where 0.1 g/L (0.96 mM) was used the ratio improved to 1:1 and when the concentration was halved (in the second example) the response was an improvement in the ratio to only 1.5:1.
In two further experiments concentrations from 0.01 g/L to 0.1 g/L (0.096, 0.24, 0.48, 0.72, 0.96 mM) were added and the impact on the metabolites observed. Again the fermentations had gas increased to minimize acetate and maximize ethanol production with CO2 blended into the gas stream to maximize 2,3-BDO production. The dilution rate and bacterial dilution rate were adjusted to 1.8 day^−1 and 0.9 day^−1 respectively. The gas blend used was 42% CO, 35% CO2, 1.5% H2 with N2 balance.

[3] = test system: branch chain amino acid production; assay: Monitoring BCAA production during 2-HIBA addition (Example 7); assay type: cell-based, Clostridium autoethanogenum; details: FIG. 11
Description: In order to generate further evidence that 2-HiBA interferes with branch chain amino acid production, the concentrations of these amino acids were monitored directly before and after the addition of 2-HIBA. FIG. 11 illustrates the results; immediately after the addition of 2-HIBA the concentrations of valine, leucine and isoleucine drop as well as biomass.

[4] = test system: Ketol-acid reductoisomerase IlvC; assay: Inhibition of ketol-acid reductoisomerase; assay type: biochemical, Clostridium autoethanogenum; details: mode of action proposed from gene expression and BCAA data
Description: The addition of 2-HIBA impacts the metabolism of Clostridium autoethanogenum. […] In native systems the expression and activity of Acetolcatate synthase IlvBN is down regulated by branched chain amino acid synthesis. The addition of 2-HIBA to the fermentation inhibits Ketol-acid recuctoisomerase IlvC, branch chained amino acid biosynthesis, which results in a decrease in the concentration of valine, isoleucine and leucine. As a result, feedback inhibition of the IlvBN enzyme by valine, isoleucine and leucine is removed. This causes an increase in acetolactate production. An increase in the acetolactate pool leads to an overflow of carbon to 2,3-butanediol. The conversion of acetolactate and acetoin to 2,3-BDO are not rate limited, and conversion to 2,3-BDO freely occurs without the need to further up regulate enzymes responsible for the conversion of acetolactate to acetoin and/or the conversion of acetoin to 2,3-BDO.
Ketol-acid reductoisomerase is inhibited by the presence of 2-HIBA. It is considered that other compounds having similar structural characteristics to 2-HIBA and the substrates that the enzyme works on (acetolactate. 2-oxo-3-hydroxyisovalerate and 2,3-dihydroxy-3-methylbutanoate) would have a similar effect on Ketol acid reductoisomerase. […]

[5] = over time after 2-HIBA addition

CC(C)(O)C(=O)O [2-HIBA, 2-hydroxyisobutyric acid]
impact on gas uptake ([1]; 0.5 g/L (4.8 mM) 2-HIBA): not to have a detrimental impact on gas uptake
metabolite profile of the fermentation ([1]; 0.5 g/L (4.8 mM) 2-HIBA, FIG. 1): increasing the production of 2,3-butanediol whilst decreasing the production of ethanol, acetate and biomass
2,3-BDO concentration ([1]; after 0.5 g/L (4.8 mM) 2-HIBA added on day 7.95, increased from 6 g/L): 12 g/L
overall washout rate of 2-HIBA ([1]; matched the bacterial dilution rate): 0.7 day⁻¹
initial washout rate of 2-HIBA ([1]; similar to the dilution rate): ~1.8 day⁻¹
lowest concentration that impacts on the production of 2,3-butanediol ([2]; 0.01 g/L to 0.1 g/L tested, 0.01 g/L = 0.096 mM): 0.01 g/L
CO uptake ([2]; Expt 1: 0.96 mM/day HIBA addition, before 9.4): 9.8 mol/L/day
2,3-BDO ([2]; Expt 1: 0.96 mM/day HIBA addition, before 9.67): 16.35 g/L
Biomass ([2]; Expt 1: 0.96 mM/day HIBA addition, before 10.7): 9.83 g/L
Ethanol ([2]; Expt 1: 0.96 mM/day HIBA addition, before 20.33): 17.05 g/L
CO uptake ([2]; Expt 2: 0.48 mM/day HIBA addition, before 8.2): 8 mol/L/day
2,3-BDO ([2]; Expt 2: 0.48 mM/day HIBA addition, before 8.42): 10.56 g/L
Biomass ([2]; Expt 2: 0.48 mM/day HIBA addition, before 12.69): 12.14 g/L
Ethanol ([2]; Expt 2: 0.48 mM/day HIBA addition, before 18.73): 15.56 g/L
drop of Ethanol:2,3-BDO ratio ([2]; for every 0.05 g/L (0.48 mM) added to a stable fermentation, data of four examples, FIG. 8): 0.5 units
concentrations of valine, leucine and isoleucine and biomass ([3]; immediately after the addition of 2-HIBA (100 mg, 0.96 mM)): drop
concentration of isoleucine [3, 5]: appears to recover
concentration of leucine and valine [3, 5]: remaining lower than the value before 2-HIBA addition
effect on Ketol-acid reductoisomerase [4]: inhibited
